{
  "source": "paper PMC4935840",
  "about": "“Molecular basis of the remarkable species selectivity of an insecticidal sodium channel toxin from the African spider Augacephalus ezendami” (Scientific Reports, 2016)",
  "key": {"[1]": {"test_system": "BgNaV1 over PaNaV1 channels", "conditions": "cited from earlier work", "from_the_text": "The selectivity of Ae1a for BgNaV1 over PaNaV1 channels is reminiscent of the selectivity reported for the insecticidal spider-venom peptide μ-DGTX-Dc1a (Dc1a) isolated from the American desert spider Diguetia canities. In order to explore the molecular basis of this species selectivity we examined the ability of Ae1a to inhibit the activity of a BgNaV1 channel containing two mutations that were previously reported to determine sensitivity to Dc1a[18]."}, "[2]": {"test_system": "American cockroaches (Periplaneta americana)", "conditions": "at much higher doses; cited from earlier work", "from_the_text": "(§1) An ideal bioinsecticide would be specific for the targeted insect pest, without harming beneficial insects. Although most spiders are generalist predators that hunt many types of insect prey, some spider-venom peptides have been isolated that are specific to certain insect orders or even to certain species within an insect order. […] Another ex ..."}, "[3]": {"test_system": "German cockroaches (Blattella germanica)", "conditions": "cited from earlier work", "from_the_text": "as §1"}, "[4]": {"test_system": "diamondback moth Plutella xylostella", "assay": "Injection into larvae of the diamondback moth (data not shown)", "type": "in vivo", "conditions": "injected into larvae of Plutella xylostella"}, "[5]": {"test_system": "mutant BgNaV1 (H805Y/D812E)", "assay": "Two-electrode voltage-clamp of mutant BgNaV1 (H805Y/D812E) in Xenopus oocytes", "type": "cell-based, Blattella germanica", "conditions": "BgNaV1 H805Y/D812E versus wild-type BgNaV1", "method": "(§2) Figure 4 Effect of rAe1a on BgNav1 and hNaV1.5. Left panels: Representative traces showing the effect of rAe1a (200 nM) on sodium currents mediated by (A) BgNaV1, (C) mutant BgNaV1 (H805Y/D812E), and (E) hNaV1.5 heterologously expressed in Xenopus oocytes. Currents were evoked by a depolarization to −15 mV, with black and red traces corresponding to the current before and after toxin application, respectively. Right panels: Effect of 200 nM rAe1a on normalized conductance-voltage (G–V) relationships (G/Gmax) and steady-state inactivation (SSI) relationships (I/Imax) for (B) BgNaV1, (D) mutant BgNaV1, and (F) hNaV1.5. […]\n(§3) cRNA encoding BgNaV1 from Blattella germanica[50] and hNaV1.5 (Origene, Rockville, MD, USA) was synthesized using T7 polymerase (mMessage mMachine kit, Life Technologies, USA) after linearizing the fully-sequenced DNA. […] Oocytes were incubated at 17 °C in 96 mM NaCl, 2 mM KCl, 5 mM HEPES, 1 mM MgCl2 and 1.8 mM CaCl2, 50 μg/ml gentamycin, pH 7.6 with NaOH, and currents were measured 1–2 days after cRNA injection using the two-electrode voltage-clamp recording technique (OC-725C, Warner Instruments, Hamden, CT, USA) with a 150-μl recording chamber. […] After addition of rAe1a to the recording chamber, equilibration between toxin and channel was monitored using weak depolarizations elicited at 5-s intervals. […]"}, "[6]": {"test_system": "NaV channel currents in dorsal unpaired median (DUM) neurons (PaNaV1)", "assay": "Whole-cell patch-clamp of NaV channel currents in DUM neurons", "type": "cell-based, Periplaneta americana", "conditions": "P. americana DUM neurons", "method": "Figure 5 Effect of rAe1a on NaV channel currents in P. americana DUM neurons. (A) Representative traces showing the effect of 1 μM rAe1a on INa mediated by PaNaV1 in P. americana DUM neurons. Currents were evoked by depolarizations to −10 mV, from a holding potential of −90 mV (panel B), with black and red traces corresponding to the current before, and 5 min after, toxin application, respectively. (C) Time course of rAe1a actions on PaNaV1. Peak INa were recorded at a rate of 0.1 Hz before (black circles), and for 5 min during, application of 1 μM rAe1a (red circles) and normalized against maximal peak INa (−1/Imax; n = 3). (D) GNa-V relationships in P. americana DUM neurons. A voltage protocol with depolarisation steps from −90 mV to +40 mV in 10 mV increments (lower panel B) was used to generate families of INa. The normalized conductance-voltage (GNa-V) relationship (G/Gmax) is shown before (black circles) and after (red circles) a 5 min perfusion with 1 μM rAe1a (n = 4). […]\nIonic currents were recorded from DUM neurons in voltage-clamp mode using the whole-cell patch-clamp technique employing version 10.2 of the pCLAMP data acquisition system (Molecular Devices, Sunnyvale, CA, USA). […] Liquid junction potentials were calculated using JPCALC, and all data were compensated for these values. […] Peak current amplitude was analysed offline using AxoGraph X v1.5.3 (Molecular Devices). […]"}, "[7]": {"test_system": "sheep blowflies (Lucilia cuprina)", "assay": "Insecticidal activity by injection into sheep blowflies (PD50)", "type": "in vivo", "method": "(§4) Figure 3 Insecticidal effects of Ae1a. (A) rAe1a was injected into blowflies (Lucilia cuprina) and paralytic effects were measured 0.5 and 1 h after injection. (B) rAe1a was injected into fruit flies (Drosophila melanogaster) and paralytic and lethal effects were measured at 3 h and 24 h post injection. (C) rAe1a and Hv1a were injected into the triatomine bug Rhodnius prolixus and lethality was measured 24 h after injection. PD50 and LD50 values were calculated as described previously.\nrAe1a was dissolved in insect saline[45] and injected into the ventro-lateral thoracic region of adult sheep blowflies (L. cuprina; mass 26.8–29.7 mg) as described previously. A maximum of 2 μl was injected per fly using a 1.0 ml Terumo Insulin syringe with 29-gauge needle fitted to an Arnold hand micro-applicator (Burkard Manufacturing Co. Ltd., Rickmansworth, England). After injection, flies were individually housed in 2-ml tubes and paralytic effects determined after 0.5, 1 and 24 h. A total of three assays were performed, and for each assay nine doses of rAe1a (n = 10 flies per dose) and the appropriate control (insect saline; n = 20 flies each) were used. PD50 values were calculated as described."}, "[8]": {"test_system": "cotton bollworms (H. armigera larvae)", "assay": "Injection into cotton bollworm larvae", "type": "in vivo, Helicoverpa armigera", "method": "We examined the effect of rAe1a on cotton bollworms (i.e., larvae of H. armigera) supplied by AgBiTech (Glenvale, QLD, Australia). […] Larvae were kept on artificial diet (AgBiTech) in standard 6-well plates and their mass was measured 24, 48 and 72 h after the injection."}, "[9]": {"test_system": "triatomine bug Rhodnius prolixus", "assay": "Toxicity by injection into triatomine bugs", "type": "in vivo", "conditions": "for activity against R. prolixus (in words): injection", "method": "as §4\nToxicity against R. prolixus was measured using the method described by Luna et al.[49] with some modifications. Microinjection needles, made by pulling borosilicate glass capillaries with a needle puller (Narishige, PC-10, Japan), were fitted onto a Nanoject II auto injector (Drummond Scientific, Broomall, PA, USA). Ae1a, Hv1a, or PBS (n = 7–10 per dose, 138 nl volume) were injected into the thorax of second instar R. prolixus nymphs (average mass 1.4 mg) via articulation of prothoracic coxa. Synthetic Hv1a was kindly supplied by Vestaron Corporation (Kalamazoo, MI, USA). Three separate sets of experiments were performed for each compound. After injection, bugs were transferred to plastic cages and stored at 26 °C with 50% relative humidity. All bugs were checked at 24 h post-injection for signs of paralysis or lethality."}, "[10]": {"test_system": "fruit fly Drosophila melanogaster", "assay": "Screen of spider venoms / native peptide by injection into fruit flies", "type": "in vivo", "conditions": "injected into D. melanogaster", "method": "We used the fruit fly Drosophila melanogaster to rapidly screen spider venoms for insecticidal activity. […] Microinjection of venoms or toxins into D. melanogaster has the advantage that it requires only small volumes (50 nl per fly), which enables the study of scarce venoms from small venomous animals. Given the worldwide availability of Drosophila and the general sensitivity of flies towards spider toxins, this assay provides a convenient method for determining the insecticidal potency of venom compounds. However, as discussed below, it should not be used in isolation but rather as part of a taxonomically diverse screening protocol that aims to uncover potentially complex phyletic specificities."}, "BgNaV1": {"test_system": "BgNaV1", "assay": "Two-electrode voltage-clamp of BgNaV1 in Xenopus oocytes", "type": "cell-based, Blattella germanica", "method": "as §2, §3"}, "[11]": {"test_system": "fruit flies (Drosophila melanogaster)", "assay": "Insecticidal activity by injection into fruit flies (PD50, LD50)", "type": "in vivo", "conditions": "D. melanogaster", "method": "as §4\nThe effect on rAe1a on fruit flies was determined using a previously described method. rAe1a was dissolved in 100 mM ammonium acetate buffer (pH 6.1) and injected into the lateral thoracic region of adult female D. melanogaster using a glass capillary connected with silicone tubing to a 10 ml plastic syringe. The injection volume per fruit fly was calibrated to be 50 nl for each glass capillary. After injection, fruit flies were housed in 68-ml plastic tubes (containing a cotton piece soaked in 0.5% sucrose solution) in groups of 10 (all receiving the same treatment) and monitored for signs of paralysis or lethality at 3 and 24 h post-injection."}, "hNaV1.5": {"test_system": "hNaV1.5", "assay": "Two-electrode voltage-clamp of hNaV1.5 in Xenopus oocytes", "type": "cell-based", "conditions": "hNaV1.5 + human β1 in Xenopus oocytes, 200 nM, n = 3–5", "method": "as §2, §3"}, "[12]": {"test_system": "insect voltage-gated calcium channels", "conditions": "cited from earlier work"}, "[13]": {"test_system": "wide range of insect pest species", "conditions": "cited from earlier work", "from_the_text": "as §1"}, "honeybees": {"test_system": "honeybees", "conditions": "cited from earlier work", "from_the_text": "as §1"}},
  "note": "“Also recorded” adds a separate entry of the source.",
  "data": [
    {"substance": "μ-DGTX-Dc1a", "values": [
      {"measurement": "selectivity for BgNaV1 over PaNaV1 (in words)", "setting": "[1]", "result": "selectivity"},
      {"measurement": "adverse effects (in words)", "setting": "[2]", "result": "does not induce adverse effects"},
      {"measurement": "lethality (in words)", "setting": "[3]", "result": "lethal"}
    ]},
    {"substance": "μ-theraphotoxin-Ae1a", "values": [
      {"measurement": "lethality (in words)", "setting": "[4]", "result": "lethal"},
      {"measurement": "sensitivity of mutant channel to toxin (in words)", "setting": "[5]", "result": "much less sensitive"},
      {"measurement": "effect on NaV channel currents in DUM neurons (in words)", "setting": "[6]", "result": "failed to significantly affect sodium currents; also recorded: no significant affect"},
      {"measurement": "paralysis (in words)", "setting": "[7]; L. cuprina", "result": "rapid but reversible paralysis; also recorded: reverses within 24 h"},
      {"measurement": "PD50 (summary value)", "setting": "[7]; sheep blowflies, approximate value in discussion", "result": "~ 950 pmol/g"},
      {"measurement": "adverse effects / resistance (in words)", "setting": "[8]", "result": "no adverse effects; also recorded: resistant"},
      {"measurement": "activity against R. prolixus (in words)", "setting": "[9]", "result": "inactive"},
      {"measurement": "lethality / toxicity (in words)", "setting": "[10]", "result": "lethal"},
      {"measurement": "inhibition of BgNaV1 currents (in words)", "setting": "BgNaV1", "result": "potently inhibits"},
      {"measurement": "paralysis / lethality (in words)", "setting": "[11]", "result": "lethal; also recorded: irreversible paralysis leading to death; also recorded: highly sensitive"},
      {"measurement": "effect on hNaV1.5 currents and gating (in words)", "setting": "hNaV1.5", "result": "completely inactive"}
    ]},
    {"substance": "ω-hexatoxin-Hv1a", "values": [
      {"measurement": "calcium channel inhibition (in words)", "setting": "[12]", "result": "selective inhibitor"},
      {"measurement": "LD50", "setting": "[9]; R. prolixus second instar nymphs, injection into thorax, 24 h after injection, n = 7–10 per dose, three experiments", "result": "147 ± 37", "unit": "pmol/g"},
      {"measurement": "activity against R. prolixus (in words)", "setting": "[9]", "result": "highly susceptible"},
      {"measurement": "lethality (in words)", "setting": "[13]", "result": "lethal"},
      {"measurement": "activity against honeybees (in words)", "setting": "honeybees", "result": "inactive"}
    ]}
  ]
}
